Experimental findings from patent publication US20210116454A1, “METHODS FOR TREATING A HEMATOLOGICAL CANCER AND THE USE OF COMPANION BIOMARKERS FOR 2-(2,6-DIOXOPIPERIDIN-3-YL)-4-((2-FLUORO-4-((3-MORPHOLINOAZETIDIN-1-YL)METHYL)BENZYL)AMINO)ISOINDOLINE-1,3-DIONE” (CELGENE CORPORATION, priority 2019, published 2021) are described below.

SMILES strings stand for the structures. Where two headings read alike, the source gives them in different places.

Holding throughout (type): cell-based
Experiment [1] deals with T1, Aiolos (Homo sapiens, UniProt Q96SW2+Q9UKT9).
T1 construct: expressed in transfected cells; host or cells: DF15 cells
T1 sequence (Q9UKT9 whole entry): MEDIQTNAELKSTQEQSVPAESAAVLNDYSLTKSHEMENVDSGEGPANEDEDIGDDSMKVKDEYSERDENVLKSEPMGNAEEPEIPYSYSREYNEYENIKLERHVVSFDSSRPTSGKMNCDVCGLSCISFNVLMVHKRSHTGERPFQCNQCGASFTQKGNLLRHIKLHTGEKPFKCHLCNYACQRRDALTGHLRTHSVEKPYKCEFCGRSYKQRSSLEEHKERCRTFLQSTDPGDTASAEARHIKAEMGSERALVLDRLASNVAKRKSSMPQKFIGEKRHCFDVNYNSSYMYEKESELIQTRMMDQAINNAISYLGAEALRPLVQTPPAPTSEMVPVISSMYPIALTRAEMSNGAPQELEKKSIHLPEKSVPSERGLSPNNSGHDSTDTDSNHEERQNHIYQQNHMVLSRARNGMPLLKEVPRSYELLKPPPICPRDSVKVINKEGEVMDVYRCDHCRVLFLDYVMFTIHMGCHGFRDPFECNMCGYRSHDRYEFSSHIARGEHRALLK
T1 sequence (Q96SW2 whole entry): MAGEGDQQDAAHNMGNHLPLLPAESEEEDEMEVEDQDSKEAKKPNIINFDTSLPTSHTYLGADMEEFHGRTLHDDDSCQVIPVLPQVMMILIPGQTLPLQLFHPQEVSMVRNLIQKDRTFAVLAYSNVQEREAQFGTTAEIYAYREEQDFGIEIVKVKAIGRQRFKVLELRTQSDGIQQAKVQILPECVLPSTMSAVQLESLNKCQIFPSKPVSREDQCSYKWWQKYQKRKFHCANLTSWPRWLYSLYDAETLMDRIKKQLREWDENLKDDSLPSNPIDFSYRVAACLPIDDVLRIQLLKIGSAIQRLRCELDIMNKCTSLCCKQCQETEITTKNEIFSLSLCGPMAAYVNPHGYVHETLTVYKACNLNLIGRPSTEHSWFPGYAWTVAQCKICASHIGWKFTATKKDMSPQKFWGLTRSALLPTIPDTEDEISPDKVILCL
T1 sequence (Q16531 whole entry partner): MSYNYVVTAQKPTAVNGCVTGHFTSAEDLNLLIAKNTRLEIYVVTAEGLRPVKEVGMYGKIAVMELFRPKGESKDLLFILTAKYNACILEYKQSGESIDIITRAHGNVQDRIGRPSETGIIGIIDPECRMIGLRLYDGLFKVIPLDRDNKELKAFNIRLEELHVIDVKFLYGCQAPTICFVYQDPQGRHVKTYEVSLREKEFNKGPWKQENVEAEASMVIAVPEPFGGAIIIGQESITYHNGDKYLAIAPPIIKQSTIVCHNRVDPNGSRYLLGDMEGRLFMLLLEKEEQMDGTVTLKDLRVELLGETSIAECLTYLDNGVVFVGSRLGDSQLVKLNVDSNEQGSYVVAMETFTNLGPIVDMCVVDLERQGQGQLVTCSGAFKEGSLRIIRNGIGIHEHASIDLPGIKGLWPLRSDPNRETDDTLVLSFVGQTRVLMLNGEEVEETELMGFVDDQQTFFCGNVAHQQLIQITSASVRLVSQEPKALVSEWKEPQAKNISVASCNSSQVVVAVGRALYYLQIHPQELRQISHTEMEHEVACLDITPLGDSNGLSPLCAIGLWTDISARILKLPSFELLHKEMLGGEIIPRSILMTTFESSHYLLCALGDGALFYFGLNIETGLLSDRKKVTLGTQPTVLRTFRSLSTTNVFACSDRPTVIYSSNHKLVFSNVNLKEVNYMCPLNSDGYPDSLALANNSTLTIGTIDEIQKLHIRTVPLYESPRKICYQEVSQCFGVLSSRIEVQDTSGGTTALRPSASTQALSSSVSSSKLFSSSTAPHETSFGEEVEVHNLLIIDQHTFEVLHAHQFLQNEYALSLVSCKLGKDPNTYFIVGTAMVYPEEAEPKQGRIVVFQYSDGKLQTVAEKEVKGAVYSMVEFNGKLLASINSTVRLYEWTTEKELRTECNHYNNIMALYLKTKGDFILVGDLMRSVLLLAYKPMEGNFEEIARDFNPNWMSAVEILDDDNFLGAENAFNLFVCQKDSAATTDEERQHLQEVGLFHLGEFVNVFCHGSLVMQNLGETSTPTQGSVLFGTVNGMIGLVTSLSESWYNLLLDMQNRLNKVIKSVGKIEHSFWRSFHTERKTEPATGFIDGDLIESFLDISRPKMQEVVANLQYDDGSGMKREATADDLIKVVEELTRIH
Nature of the experiment: Enzyme fragment complementation (EFC) degradation assay, DF15 cells expressing ePL-tagged substrate. The note with it: for Emax: DF15, DF15 ePL-Aiolos, remaining substrate; for DC50: DF15 ePL-Aiolos, read-out: Aiolos degradation EC50.

The test system of experiment [2] is SU-DHL-2^CRBNWT cells. The experiment can be described thus: Live-cell imaging of caspase-3 activation. The note with it: time course of 112 hours. The method, then: To confirm the timing of induction of apoptosis and its cereblon dependency, a live-cell imager that provides kinetic, real-time caspase-3 activation (indicator of apoptosis) data was used. SU-DHL-2^CRBNWT cells treated with Compound 1 were analyzed for caspase-3 activation by following the cleavage in cells of a specific caspase-3 enzyme substrate over a time course of 112 hours. Compound 1-dependent induction of caspase-3 activity began at 12 hours post treatment and reached maximal induction at ˜72 hours (FIG. 5 D).

The test system of experiment [3] is exhausted T cells. The experiment can be described thus: SEB-induced T-cell exhaustion restimulation assay, effector cytokine release (MSD). Conditions: for EC50: T cell restimulation assay.
Experiment [4] concerns SU-DHL-2 cells. The experiment can be described thus: Western blot of substrate degradation by each enantiomer, short time-course. Conditions: SU-DHL-2, within 2 hours at 1 nM. The protocol: Pure samples of each enantiomer were tested for cellular degradation of substrate proteins measured over a short time-course (FIG. 16). SU-DHL-2 cells were treated for 1, 2, and 6 hours with vehicle control (0.1% DMSO), Compound 1 (1, 10, 100 nM), or Compound 2 (1, 10, 100 nM). Western blot analysis was used to evaluate the extent of degradation of the protein substrates Aiolos, Ikaros, and ZFP91. Compound 1 inhibited Aiolos, Ikaros, and ZFP91 in as early as 1 hour of treatment with as little as 1 nM.

As a reminder, the Emax is the size of the effect at its maximum, as opposed to the concentration needed. Broadly, the EC50 is the concentration needed to bring the measured effect to its halfway point. As for `O=C1CC[C@H](N2C(=O)c3cccc(NCc4ccc(CN5CC(N6CCOCC6)C5)cc4F)c3C2=O)C(=O)N1` [Compound 1, (S)-2-(2,6-dioxopiperidin-3-yl)-4-((2-fluoro-4-((3-morpholinoazetidin-1-yl)methyl)benzyl)amino)isoindoline-1,3-dione], the maximal response (Emax) in experiment [1] (1 hour) stood at 60%; in experiment [1] (2 hours) it was 16.5%; in experiment [1] (6 hours) it was 6%; in experiment [1] (24 hours), 7%. For the same molecule, the DC50 in experiment [1] (1 hour) was found to be 0.6 nM; in experiment [1] (2 hours), 0.5 nM; in experiment [1] (6 hours), 0.2 nM; in experiment [1] (24 hours), 0.2 nM. Besides, the “start of induction of caspase-3 activity post treatment” value in experiment [2] turned out to be 12 h. The “time of maximal induction of caspase-3 activity” value in experiment [2] is roughly 72 h. In addition, the EC50 in experiment [3] (read-out: EC50 for secreted GM-CSF levels) is 6 nM; in experiment [3] (read-out: EC50 for secreted IFNγ), 10 nM; in experiment [3] (read-out: EC50 for secreted TNFα), 10 nM. For the same molecule, the GM-CSF secretion is 3000 pg/mL in experiment [3] (approximately 0.001 μM for 96 hours) and 10,000 pg/mL in experiment [3] (approximately 0.01 μM for 96 hours). The GM-CSF secretion plateau result in experiment [3] (concentrations greater than 0.1 μM, 96 hours) was “under 15,000 pg/mL”. Moreover, the “degradation of each of Aiolos, Ikaros, and ZFP91” value in experiment [4] is listed as “More than 50%”.
